Results as given in patent US7414058B2, “Adenosine A2a receptor antagonists for the treatment of extra-pyramidal syndrome and other movement disorders” (Schering Corporation, priority 2002, dated 2008).

System: haloperidol-induced EPS in Cebus apella monkeys
Test: Haloperidol-induced EPS in sensitized Cebus apella monkeys
Type: in vivo
Details: for monkeys in which onset of EPS was prevented: group of seven monkeys
Protocol: A more complete understanding of the invention may be obtained by reading the following description in conjunction with the appended figures relating to haloperidol-induced EPS in Cebus apella monkeys.
Compound A was administered orally (p.o.) at doses of 0.3-30 mg/kg, in conjunction with haloperidol. The studies were conducted using a within-subjects design such that each monkey received all 6 treatments (vehicle and 5 doses of Compound A) in a crossover, balanced design.

[1] = 1 mg/kg p.o., haloperidol 0.3 mg/kg p.o.
[2] = 10 and 30 mg/kg p.o., haloperidol 0.3 mg/kg p.o.

Nc1nc2c(cnn2CCN2CCN(c3ccc(F)cc3F)CC2)c2nc(-c3ccco3)nn12 [Compound A]
monkeys in which onset of EPS was prevented [1]: one | delay of the onset of EPS [1]: 1 h | monkeys in which onset of EPS was prevented (3 mg/kg p.o., haloperidol 0.3 mg/kg p.o.): two | delay of the onset of EPS (3 mg/kg p.o., in the remaining monkeys, haloperidol 0.3 mg/kg p.o.): ~2 h | monkeys in which onset of EPS was prevented [2]: three | delay of the onset of EPS (average) [2]: 2.3 to 2.9 h | maximum EPS score (Compound A 0.3-30 mg/kg p.o. with haloperidol 0.3 mg/kg p.o., FIG. 1A, seven monkeys, crossover): dose-dependent reduction | delay in the onset of EPS (dose dependence) (Compound A 0.3-30 mg/kg p.o. with haloperidol 0.3 mg/kg p.o., FIG. 1B, vs vehicle): dose-dependent delay
